Values joined by “and” are separate entries in the source; they are usually repeats but may differ in a detail not shown here. Identical values can stand only once.
Target: CGRP receptor complex (Homo sapiens, UniProt O60894+Q16602)
Assay: Functional antagonism/Schild analysis, CGRP-stimulated cAMP production (HTRF) in SK-N-MC cells
Format: cell-based
Procedure: Saturation/Scatchard Analysis. […] Saturation data were analyzed using a one site binding equation to estimate apparent equilibrium dissociation constant (Kd) and the maximum number of binding sites (Bmax) (Prizm v4.0, Graphpad). […] Functional Antagonism/Schild analysis. Agonist stimulation of CGRP receptor complex leads to cyclic AMP (adenosine 3′5′-cyclic monophosphate) production via Gs-dependent activation of an adenylate cyclase (Juaneda C et al., TiPS, 2000; 21:432-438). Consequently, CGRP receptor antagonists inhibit CGRP-induced cyclic AMP formation in SK-N-MC cells which natively express the CGRP receptor complex (Doods H et al., Br J Pharmacol, 2000; 129(3):420-423). […] A Schild analysis format was used, which allowed investigation of the mechanism of antagonism. […] Various concentrations of CGRP were added and the cells were allowed to incubate 30 min at room temperature. The cells were lysed with lysis reagent and cAMP concentrations were determined by HTRF according to the manufacturer's instructions. A standard curve using known quantities of cAMP was evaluated in parallel to allow conversion of HTRF ratio to nM cAMP. The resulting curves were then evaluated using a Gaddum/Schild equation individually and with global fitting (Prizm v4.0, Graphpad). […] To obtain a global fit the following parameters were shared (top, bottom, logEC50, Hill slope and pA2) and all curves were fit simultaneously. […] Non-Terminal Method for Assessing In Vivo Efficacy of Small Molecule CGRP-Receptor Antagonists in Mammals Overview. […] Non-human primates (e.g., marmosets) are the only animals known to have human-like CGRP receptor pharmacology conferred by the presence of the specific amino acid residue (Trp74) in their RAMP1 sequence which is responsible for the phenotype of the human receptor (Mallee et al. J Biol Chem 2002 277:14294). […]

Chain of CGRP receptor complex (Q16602 23-461): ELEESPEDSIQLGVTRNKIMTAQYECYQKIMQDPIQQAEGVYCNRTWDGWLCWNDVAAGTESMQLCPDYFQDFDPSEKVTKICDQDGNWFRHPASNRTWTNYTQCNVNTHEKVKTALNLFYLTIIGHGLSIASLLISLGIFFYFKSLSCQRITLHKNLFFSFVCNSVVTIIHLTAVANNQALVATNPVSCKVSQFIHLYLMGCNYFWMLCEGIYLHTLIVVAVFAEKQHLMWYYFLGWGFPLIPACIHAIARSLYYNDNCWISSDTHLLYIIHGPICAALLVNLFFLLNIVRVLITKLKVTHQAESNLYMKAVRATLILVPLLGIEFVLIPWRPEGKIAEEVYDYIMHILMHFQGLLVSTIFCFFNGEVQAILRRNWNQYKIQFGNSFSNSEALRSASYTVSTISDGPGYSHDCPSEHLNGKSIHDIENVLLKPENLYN
Chain of CGRP receptor complex (O60894 27-148): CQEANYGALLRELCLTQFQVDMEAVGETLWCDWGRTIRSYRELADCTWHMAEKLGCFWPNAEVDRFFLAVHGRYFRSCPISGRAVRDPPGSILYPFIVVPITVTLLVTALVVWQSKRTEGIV

O=C(O[C@@H]1CC[C@@H](c2cccc(F)c2F)Cc2cccnc21)N1CCC(n2c(=O)[nH]c3ncccc32)CC1 [Example 20]
effect on maximal CGRP response (cAMP production) (15 min pre-incubation, 0.3 to 24 nM antagonist): without altering the maximal response | Kb (global Gaddum/Schild fit, Schild slope of 1, two datasets): 0.247 ± 0.04 nM | Schild slope (global fits with unconstrained Schild slope, two separate experiments): 1.17 and 0.8

— patent US8143403B2 (Bristol-Myers Squibb Company, priority 2008, dated 2012)
